Values quoted from earlier work, collected in patent publication US20080161402A1, “Targeting the Reverse Mode of the Na+/Ca2+ Exchanger For the Treatment of Neurodegenerative Conditions” (ALLERGAN, INC., priority 2004, published 2008).

Test system: Na+/Ca2+ exchanger
Settings: variety of cell types including neurons; reverse vs forward mode

## CS(=O)(=O)O.N=C(N)SCCc1ccc(OCc2ccc([N+](=O)[O-])cc2)cc1 [KB-R743, 2-[2-[4-(4-nitorbenzyloxy)phenyl]ethyl]isothiourea methanesulfonte]
  mode selectivity of Na+/Ca2+ exchanger block: preferentially block the reverse mode
